In US10336748B2, “Methyoxy-substituted pyrrolopyridine modulators of RORC2 and methods of use thereof” (Pfizer Inc., priority 2015, dated 2019) one finds IC50 data, which are given here for eleven molecules.

The target in assay [1] is T1, RORC2 ligand binding domain (6-His-RORC2 LBD) (Homo sapiens, UniProt P51449).
T1 construct: made in house; host or cells: E. coli
T1 sequence (P51449 269-508 limits assumed): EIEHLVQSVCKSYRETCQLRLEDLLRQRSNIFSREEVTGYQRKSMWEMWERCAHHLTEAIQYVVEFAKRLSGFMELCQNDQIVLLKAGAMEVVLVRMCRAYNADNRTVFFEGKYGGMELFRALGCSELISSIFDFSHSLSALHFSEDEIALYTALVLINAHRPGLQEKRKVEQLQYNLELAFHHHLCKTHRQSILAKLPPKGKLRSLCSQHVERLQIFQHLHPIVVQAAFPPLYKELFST
In words: Co-activator recruitment by TR-FRET. The note with it: 6.3 nM RORC2 LBD, 200 nM SRC1-2 coactivator peptide, 3 hr room temperature. Format: biochemical. From the text:
The activity of compound of the invention can be determined by a co-activator recruitment by TR-FRET (time-resolved fluorescence resonance energy transfer) assay. In general, the assay is based on the interaction between N-terminally Six-Histidine-tagged-RORC2 ligand binding domain (6-His-RORC2 LBD), expressed in E. coli and purified by affinity chromatography, and biotin-coactivator peptide SRC1-2 (biotin-aminohexanoic acid-[…]-NH2; SEQ ID NO: 1) containing the LXXLL consensus domain which is responsible for receptor binding. This interaction is detected by addition of Europium labeled-anti-His antibody (Ex. 337 nm, Em. 620 nm, which binds to 6His) and Streptavidin-APC (Ex. 620 nm, Em. 665 nm, which binds to biotin). When receptor and coactivator are bound to each other, upon shining light at 337 nm on the sample, the Europium emits fluorescence that excites APC due to close proximity (FRET) and this signal is measured at 665 nm. Due to the long lasting fluorescence emission of Europium, the non-specific, short-lived fluorescence is time-resolved (TR) from the fluorescence of interest. Inhibitors of the interaction of receptor and coactivator peptide are detected by a decrease in TR-FRET signal.
Specifically, in one embodiment the aforementioned assay was performed as outlined below. The assay was carried out in black polystyrene. 384-well plates in a total assay volume of 50.5 μL. The assay buffer contained 50 mM TRIS-HCL pH 7.5, 1 mM NaCl, 2 mM MgCl2, 0.5 mg/mL bovine serum albumin, and 5 mM dithiothreitol. The final concentration of reagents was 6.3 nM RORC2 LBD, 200 nM SRC1-2, 50 nM streptavidin APC, 1 nM Europium-labeled anti-His antibody, and varying concentrations of compounds such that final concentration of DMSO is 1% (v/v). The assay steps were: (1) dispensing […] compound at 100× final concentration in DMSO (test wells) or DMSO only (control wells for no inhibition); and (2) dispensing 50 μL mixture of the other assay components including receptor (test wells) or excluding receptor (control wells for maximal inhibition).
Assay mixtures were incubated are room temperature for 3 hr and read in EnVision 2100 Multilabel Reader (PerkinElmer Life Sciences) at Excitation Filter 320, Emission Europium Filter 615, Emission APC Filter 665, Dichroic Mirror D400/D630.
TR-FRET signal was determined by calculating the ratio of 665 nm by 615 nm and […] values of compounds of the invention (Table 1) were determined by the non-linear regression analysis of dose response curves.

Another assay concerns human Th17 cells. The assay is described as follows: IL-17 production from human Th17 cells. The settings on record: 144 h; IL-17A in supernatant by ELISA (MSD) after 6 days, human CD4+ T cells, anti-CD3 + anti-CD28 + cytokine cocktail. Format: cell-based. As to the method:
The activity of compound of the invention can be also be determined by an IL-17 production from human Th17 cells assay. In general, this assay measures blockade of IL-17 production, the signature cytokine of T helper 17 (Th17) cells, by compounds. Purified human CD4+ T cells are stimulated with anti-CD3+anti-CD28 and incubated with a cytokine cocktail that induce their differentiation into Th17 in the absence or presence of various concentrations of compound. After 6 days, IL-17A concentration is measured in the cell culture supernatant with an ELISA kit (MSD).
Preparation of human CD4+ T cells. CD4+ T cells were purified from buffy coats from healthy donors (obtained from Massachusetts General Hospital) by negative selection the following procedure: Mixing 25 mL of blood with 1 mL of Rosette Sep CD4+ T cell enrichment cocktail (StemCell Technologies) followed by application of a layer of 14 mL Ficoll Paque Plus (Amersham GE Healthcare) and subsequent centrifugation at 1200 g for 20 min at room temperature. The Ficoll layer was then harvested and washed with phosphate saline buffer containing 2% (v/v) fetal bovine serum and cells were resuspended with RPMI medium containing 10% (v/v) fetal bovine serum and 10% (v/v) DMSO, frozen and kept in LN2 until used.
On the first day of the assay, a vial containing 10^7 CD4+ T cells is thawed rapidly in 37° C. water bath, immediately transferred into 20 mL X-Vivo 15 medium (Lonza), is spun for 6 min at 300×g, the supernatant is discarded, and the resulting pellet is re-suspended at 10^6 cells/mL in […] fresh X-Vivo 15 medium, followed by storage overnight in a tissue culture vessel in a humidified chamber at 37° C. and 5% CO2. Serial dilutions of compounds of the invention are prepared at 10× final concentration in X-Vivo15 medium containing 3% (v/v) DMSO.
On the second day of the assay, a 384-well tissue culture plate was coated with 10 μg/mL anti-hCD3 (eBioscience) at 50 μL/well. After 2 hr at 37° C., the supernatant is discarded and the coated plates are kept in a sterile tissue culture hood.
Cytokine plus anti-CD28 cocktail is prepared by mixing 25 ng/mL hIL-6 (Peprotech), 5 ng/mL hTGFbeta1 (Peprotech), 12.5 ng/mL IL-1beta (Peprotech), 25 ng/mL hIL-21, 25 ng/mL hIL-23 (R&D Systems), and 1 ug/mL anti-hCD28 (eBioscience) in X-Vivo 15 medium. The cytokine plus anti-CD28 cocktail with CD4+ cells is prepared such that the cocktail is diluted 10-fold and cell density is 0.22×10^6/mL. The mixture is incubated 1 hr at 37° C.
90 μL (20,000 cells) dispensed per well in the anti-hCD3 coated plate prepared as noted above.
10 μL 10× compound is added per well (final DMSO=0.3%) from the compound plate that was previously prepared, followed by 6 days of incubation in a tissue culture vessel in a humidified chamber at 37° C. and 5% CO2.
On day six of the assay, production of IL-17A in 10 μL of the supernatant is determined by sandwich ELISA using 384w hIL17 MSD plates following the manufacturer's protocol. Measurement is carried out in a Sector Imager 6000 by the same manufacturer. Signal units from the instrument are converted to pg/mL using a calibration curve with known amounts of IL-17A. IC50 values of test compounds (Table 2) are determined by the non-linear regression analysis of dose response curves.
In general terms: An ELISA detects its analyte on a solid surface through an enzyme-linked reagent.

For the molecule `COc1c(NC(=O)c2cccc(C#N)c2)cnc2c1c(C1CCN(C(=O)[C@H](C)C(C)C)CC1)cn2C` [Example 6, (R)-3-cyano-N-(3-(1-(2,3-dimethylbutanoyl)piperidin-4-yl)-4-methoxy-1-methyl-1H-pyrrolo[2,3-b]pyridin-5-yl)benzamide], the IC50 – broadly, the concentration that gives 50% inhibition – in assay [1] came out at 15.2 nM; in the assay on human Th17 cells, 15.7 nM.

With `COc1ccc(C(=O)Nc2cnc3c(c([C@@H]4CCN(C(=O)C5CCCC5)C(C)(C)C4)cn3C)c2OC)cc1C#N` [Example 30, (R)-3-cyano-N-(3-(1-(cyclopentanecarbonyl)-2,2-dimethylpiperidin-4-yl)-4-methoxy-1-methyl-1H-pyrrolo[2,3-b]pyridin-5-yl)-4-methoxybenzamide], the IC50 in assay [1] is 13.5 nM; in the assay with human Th17 cells it was 6.7 nM.

For the molecule `COc1ccc(C(=O)Nc2cnc3c(c(C4CCN(C(=O)[C@@H](C)C(C)(C)C)CC4)cn3C)c2OC)cc1C#N` [Example 3, (S)-3-cyano-4-methoxy-N-(4-methoxy-1-methyl-3-(1-(2,3,3-trimethylbutanoyl)piperidin-4-yl)-1H-pyrrolo[2,3-b]pyridin-5-yl)benzamide], the IC50 in assay [1] came to 4.6 nM; in the assay with human Th17 cells, 6.4 nM.

For the molecule `COc1c(NC(=O)c2cccc(C#N)c2)cnc2c1c(C1CCN(C(=O)C3CCCC3)CC1)cn2C` [Example 8, 3-cyano-N-(3-(1-(cyclopentanecarbonyl)piperidin-4-yl)-4-methoxy-1-methyl-1H-pyrrolo[2,3-b]pyridin-5-yl)benzamide], the values for the IC50 (in assay [1]; in the assay on human Th17 cells) were 11.8 nM and 29.8 nM, respectively.

Consider `COc1c(NC(=O)c2cccc(C#N)c2)cnc2c1c([C@@H]1[C@@H]3CC[C@H]1CN(C(=O)C(C)C)C3)cn2C` [Example 20, 3-cyano-N-(3-(3-isobutyryl-3-azabicyclo[3.2.1]octan-8-yl)-4-methoxy-1-methyl-1H-pyrrolo[2,3-b]pyridin-5-yl)benzamide], for which the half-maximal inhibitory concentration (IC50) was 23.2 nM in assay [1] and 112 nM in the assay on human Th17 cells.

As for `COc1c(NC(=O)c2cccc(C#N)c2)cnc2c1c([C@@H]1[C@@H]3CC[C@H]1CN(C(=O)C1CCCC1)C3)cn2C` [Example 23, 3-cyano-N-(3-((1R,5S,8r)-3-(cyclopentanecarbonyl)-3-azabicyclo[3.2.1]octan-8-yl)-4-methoxy-1-methyl-1H-pyrrolo[2,3-b]pyridin-5-yl)benzamide], the IC50 in assay [1] turned out to be 31.2 nM; in the assay with human Th17 cells, 38 nM.

As to `COc1cc(C#N)cc(C(=O)Nc2cnc3c(c(C4CCN(C(=O)C5CCCC5)CC4)cn3C)c2OC)c1` [Example 12, 3-cyano-N-(3-(1-(cyclopentanecarbonyl)piperidin-4-yl)-4-methoxy-1-methyl-1H-pyrrolo[2,3-b]pyridin-5-yl)-5-methoxybenzamide], the IC50 in assay [1] amounted to 20.2 nM; with human Th17 cells it was 59.8 nM.

Turning to `COc1ccc(C(=O)Nc2cnc3c(c([C@@H]4CCN(C(=O)C(C)C)C(C)(C)C4)cn3C)c2OC)cc1C#N` [Example 29, (R)-3-cyano-N-(3-(1-isobutyryl-2,2-dimethylpiperidin-4-yl)-4-methoxy-1-methyl-1H-pyrrolo[2,3-b]pyridin-5-yl)-4-methoxybenzamide], the IC50 in assay [1] worked out at 8.1 nM; with human Th17 cells, 8.9 nM.

`COc1c(NC(=O)c2cccc(C#N)c2)cnc2c1c([C@@H]1CCN(C(=O)C3CCCCC3)C(C)(C)C1)cn2C` [Example 27, (R)-3-cyano-N-(3-(1-(cyclohexanecarbonyl)-2,2-dimethylpiperidin-4-yl)-4-methoxy-1-methyl-1H-pyrrolo[2,3-b]pyridin-5-yl)benzamide]: the IC50 in assay [1] came out at 4.8 nM; in the assay on human Th17 cells it was 11.3 nM.

On to `COc1c(NC(=O)c2cccc(C#N)c2)cnc2c1c([C@@H]1CCN(C(=O)C(C)C)C(C)(C)C1)cn2C` [Example 28, (R)-3-cyano-N-(3-(1-isobutyryl-2,2-dimethylpiperidin-4-yl)-4-methoxy-1-methyl-1H-pyrrolo[2,3-b]pyridin-5-yl)benzamide], for which the 50% inhibitory concentration (IC50) in assay [1] came out at 6.2 nM; in the assay with human Th17 cells, 21.2 nM.

Consider `COc1c(NC(=O)c2cccc(C#N)c2)cnc2c1c(C1CCN(C(=O)[C@H](C)C3CCCC3)CC1)cn2C` [Example 18, (R)-3-cyano-N-(3-(1-(2-cyclopentylpropanoyl)piperidin-4-yl)-4-methoxy-1-methyl-1H-pyrrolo[2,3-b]pyridin-5-yl)benzamide], for which the IC50 in assay [1] turned out to be 7.1 nM; in the assay on human Th17 cells it was 6.5 nM.
